Patent US11541051B2, “Compositions and methods for treating CDK4/6-mediated cancer” (Icahn School of Medicine at Mount Sinai, priority 2016, dated 2023)
Entries after “also recorded” stand apart in the source; their conditions may differ.

Tests used:
Assay type in all cases: cell-based
[1] = tested on: CDK4/6; assay: Characterization of CDK4/6 degraders/disruptors in various breast cancer and melanoma cells (summary, Examples 12 and 13)
Description: Specific exemplary abemaciclib-, ribociclib-, and palbociclib-based CDK4/6 degraders/disruptors were characterized in various different breast cancer and melanoma cells (Examples 12 and 13, FIGS. 10-23). […] This efficacy in suppressing CDK4/6 expression and CDK4/6 activity correlated with efficacy in inhibiting cancer cell proliferation.
(§1) Protein concentrations were determined by BCA from cell lysates and equal amounts of protein are loaded to a Bis-Tris 4-12% gel. Gels were run at 80 V for 4 h using 1× running buffer (25 mM Tris, pH 8.3, […] glycine, 0.1% SDS). Proteins were transferred to a nitrocellulose membrane for 2 h at 100 V using transfer buffer (25 mM Tris, pH 8.3, […] glycine, 20% methanol). Ponceau S staining (0.1% Ponceau S, 1% acetic acid) was used to confirm transfer of proteins to the membrane followed by blocking of the membrane for 30 min at room temperature using blocking buffer (5% dry nonfat milk, 0.1% Tween, 0.02% sodium azide in TBS). The blocked membrane is incubated with primary antibodies (1:1000 dilution) in blocking buffer at 4° C. overnight. When primary phosphor-antibodies were used, then the membrane is incubated with 5% BSA instead of milk. The membrane was washed three times, 10 min each, with wash buffer (0.1% Tween in TBS) followed by incubation with secondary HRP conjugated antibody (1:5000 dilution) in 2.5% dry nonfat milk, 0.1% Tween in TBS for 1 h at room temperature. The membrane was washed three times, 10 min each, with wash buffer (0.1% Tween in TBS). Membranes are incubated with ECL for 1 min and proteins are detected after exposure to a blue autoradiographic film.

[2] = tested on: CDK4/6; assay: Western blot of CDK4 and CDK6 in MCF7 breast cancer cells treated with degraders (Example 12, FIG. 10 A); conditions: 1 or 5 μM, 24 h
Description: (§2) Breast cancer cell lines (MCF7, T47D, and ZR-75-1) and melanoma cell lines (A375, SK-MEL-2, SK-MEL-30, and WM1382) were cultured in the presence of DMEM or RPMI supplemented with 10% FBS in the presence of penicillin and streptomycin.
as §1
(§3) MCF7 breast cancer cells were treated with 1 or 5 μM XY019-095, XY019-098, XY019-0100, XY019-105A, XY019-105B, XY019-106, or XY019-108 for 24 h, then lysed and immunoblotted with antibodies to CDK4, CDK6, and actin (FIG. 10, panel A). […] T47D breast cancer cells were treated with 0.1, 0.3, 1, 3, 10, or 30 μM XY019-106 for 24 h, then lysed and immunoblotted with antibodies to phospho-Rb (pRB), CDK4, and actin (FIG. 10, panel B).

[3] = tested on: CDK4/6; assay: Western blot of CDK4, CDK6 and phospho-Rb in A375 melanoma cells treated with degraders (Example 12, FIGS. 12, 13, 16, 18); conditions: 1 or 3 μM, 24 h
Description: as §2, §1
A375 melanoma cells (FIG. 13) were treated with 1 or 3 μM Ribociclib (RB), YX030-126, YX030-108, YX030-107, YX030-086, YX030-085 or XY028-133 for 24 h, then lysed and immunoblotted with antibodies to CDK4, CDK6, cyclin A, PLK1, phospho-Rb (pRb), and actin.
A375 melanoma cells (FIG. 16, panel A) were treated with 0.3 or 1 μM XY028-140, YX039-65, YX039-48, YX039-123, YX039-56, YX039-124 or YX039-147 for 24 h. A375 melanoma cells were treated with 1 or 3 μM XY028-140, YX039-56, YX039-65 or XY028-133 (FIG. 16, panel B). Cells were lysed and immunoblotted with antibodies to phospho-Rb (pRb), total Rb, PLK1, cyclin A, CDK4, CDK6, and actin.
A375 melanoma cells (FIG. 18) were treated with 1 or 3 μM XY028-133, YX044-18, YX044-22, XY028-140, YX044-19 or YX044-38 for 24 h, then lysed and immunoblotted with antibodies to phospho-Rb (pRb), total Rb, PLK1, cyclin A, CDK4, CDK6, and actin.

[4] = tested on: CDK4/6; assay: Western blot of CDK4, CDK6 and phospho-Rb in SK-MEL-2 or A375 melanoma cells treated with degraders (Example 12, FIG. 11); conditions: SK-MEL-2 or A375 cells; 1 or 3 μM; 24 h
Description: as §2
as §1, with “The membrane was washed three times, 10 min each, with wash buffer (0.1% Tween in TBS) followed by incubation with secondary HRP conjugated antibody (1:5000 dilution) in 2.5% dry nonfat milk, 0.1% Tween in TBS for 1 h at room temperature. The membrane was washed three times, 10 min each, with wash buffer (0.1% Tween in TBS).” left out, “film. […]” for “film.”

[5] = tested on: CDK4/6; assay: Western blot of CDK4/6 and phospho-Rb in T47D breast cancer cells treated with degraders (Example 12, FIGS. 10 B, 17, 19); conditions: 0.3 or 1 μM, 24 h
Description: as §2, §1, §3
T47D breast cancer cells (FIG. 17) were treated with 0.3 or 1 μM XY028-140, YX039-48, YX039-123, YX039-56, YX039-124, YX039-65, YX039-147 or YX039-74 for 24 h, then lysed and immunoblotted with antibodies to phospho-Rb (pRb), total Rb, PLK1, cyclin A, CDK4, CDK6, and actin.
T47D breast cancer cells (FIG. 19) were treated with 0.3 or 1 μM XY028-133, YX044-18, YX044-22, XY028-140, YX044-19 or YX044-38 for 24 h, then lysed and immunoblotted with antibodies to phospho-Rb (pRb), total Rb, PLK1, cyclin A, CDK4, CDK6, and actin.

[6] = tested on: T47D breast cancer cells; assay: Crystal violet staining (clonogenic assay) of T47D breast cancer cells (Example 13, FIGS. 22, 23); conditions: 11 days
Description: Cells were cultured for 7-11 days in the presence of different compounds. Media with compound was replenished every two days. At the end of the experiment, media was aspirated and viable cells were stained with 0.5% crystal violet dye.

| SMILES | suppression of both CDK4/6 expression and CDK4/6 activity (summary) [1] | suppression of CDK4/6 expression [2] | efficacy in inhibiting both CDK4/6 expression and CDK4/6 activity (decreased Rb phosphorylation) [3] | efficacy in inhibiting both CDK4/6 expression and CDK4/6 activity (decreased Rb phosphorylation) [4] | efficacy in inhibiting both CDK4/6 expression and CDK4/6 activity (decreased Rb phosphorylation) [5] | inhibition of cancer cell proliferation compared with palbociclib (crystal violet staining) ([6]; 0.003, 0.01 or 0.03 μM) | inhibition of cancer cell proliferation compared with palbociclib (crystal violet staining) ([6]; 0.03, 0.1, 0.3, 1 or 3 μM) |
| --- | --- | --- | --- | --- | --- | --- | --- |
| CC(=O)c1c(C)c2cnc(Nc3ccc(N4CCN(C(=O)COCCOCCOCC(=O)N[C@H](C(=O)N5C[C@H](O)C[C@H]5C(=O)NCc5ccc(-c6scnc6C)cc5)C(C)(C)C)CC4)cn3)nc2n(C2CCCC2)c1=O [XY019-098, (2S,4R)-1-((S)-14-(4-(6-((6-acetyl-8-cyclopentyl-5-methyl-7-oxo-7,8-dihydropyrido[2,3-d]pyrimidin-2-yl)amino)pyridin-3-yl)piperazin-1-yl)-2-(tert-butyl)-4,14-dioxo-6,9,12-trioxa-3-azatetradecanoyl)-4-hydroxy-N-(4-(4-methylthiazol-5-yl)benzyl)pyrrolidine-2-carboxamide] | especially effective in suppressing both CDK4/6 expression and CDK4/6 activity | especially effective in suppressing CDK4/6 expression even at 1 μM |  |  |  |  |  |
| CC(=O)c1c(C)c2cnc(Nc3ccc(N4CCN(C(=O)CCOCCOCCOCCNc5cccc6c5C(=O)N(C5CCC(=O)NC5=O)C6=O)CC4)cn3)nc2n(C2CCCC2)c1=O (centres unmarked) [XY019-108, 4-((2-(2-(2-(3-(4-(6-((6-acetyl-8-cyclopentyl-5-methyl-7-oxo-7,8-dihydropyrido[2,3-d]pyrimidin-2-yl)amino)pyridin-3-yl)piperazin-1-yl)-3-oxopropoxy)ethoxy)ethoxy)ethyl)amino)-2-(2,6-dioxopiperidin-3-yl)isoindoline-1,3-dione] | especially effective in suppressing both CDK4/6 expression and CDK4/6 activity | especially effective in suppressing CDK4/6 expression even at 1 μM |  |  |  |  |  |
| CC(=O)c1c(C)c2cnc(Nc3ccc(N4CCN(C(=O)CCOCCC(=O)N[C@H](C(=O)N5C[C@H](O)C[C@H]5C(=O)NCc5ccc(-c6scnc6C)cc5)C(C)(C)C)CC4)cn3)nc2n(C2CCCC2)c1=O [XY028-003, (2S,4R)-1-((S)-2-(3-(3-(4-(6-((6-acetyl-8-cyclopentyl-5-methyl-7-oxo-7,8-dihydropyrido[2,3-d]pyrimidin-2-yl)amino)pyridin-3-yl)piperazin-1-yl)-3-oxopropoxy)propanamido)-3,3-dimethylbutanoyl)-4-hydroxy-N-(4-(4-methylthiazol-5-yl)benzyl)pyrrolidine-2-carboxamide] | especially effective in suppressing both CDK4/6 expression and CDK4/6 activity |  | efficacy of CDK4/6 degraders, particularly XY028-133, XY028-140, XY019-106 and XY028-003 | efficacy of CDK4/6 degraders/disruptors, particularly XY019-106 and XY028-003 |  |  |  |
| CC(=O)c1c(C)c2cnc(Nc3ccc(N4CCN(C(=O)CNc5cccc6c5C(=O)N(C5CCC(=O)NC5=O)C6=O)CC4)cn3)nc2n(C2CCCC2)c1=O (centres unmarked) [XY028-140, 4-((2-(4-(6-((6-acetyl-8-cyclopentyl-5-methyl-7-oxo-7,8-dihydropyrido[2,3-d]pyrimidin-2-yl)amino)pyridin-3-yl)piperazin-1-yl)-2-oxoethyl)amino)-2-(2,6-dioxopiperidin-3-yl)isoindoline-1,3-dione] | especially effective in suppressing both CDK4/6 expression and CDK4/6 activity |  | efficacy of CDK4/6 degraders, particularly XY028-133, XY028-140, XY019-106 and XY028-003 |  | efficacy of CDK4/6 degraders, particularly XY028-140 and YX039-123; also recorded: efficacy of CDK4/6 degraders, particularly XY028-140 and YX044-22 and YX044-19 | inhibited cancer cell proliferation more effective that palbociclib at the same concentration | inhibited cancer cell proliferation more effective that palbociclib at the same concentration |
| CC(=O)c1c(C)c2cnc(Nc3ccc(N4CCN(C(=O)COc5cccc6c5CN(C5CCC(=O)NC5=O)C6=O)CC4)cn3)nc2n(C2CCCC2)c1=O (centres unmarked) [YX039-123, 3-(4-(2-(4-(6-((6-acetyl-8-cyclopentyl-5-methyl-7-oxo-7,8-dihydropyrido[2,3-d]pyrimidin-2-yl)amino)pyridin-3-yl)piperazin-1-yl)-2-oxoethoxy)-1-oxoisoindolin-2-yl)piperidine-2,6-dione] | especially effective in suppressing both CDK4/6 expression and CDK4/6 activity |  |  |  | efficacy of CDK4/6 degraders, particularly XY028-140 and YX039-123 | inhibited cancer cell proliferation more effective that palbociclib at the same concentration | inhibited cancer cell proliferation more effective that palbociclib at the same concentration |
| CC(=O)c1c(C)c2cnc(Nc3ccc(N4CCN(C(=O)CCCCCC(=O)N[C@H](C(=O)N5C[C@H](O)C[C@H]5C(=O)N[C@@H](C)c5ccc(-c6scnc6C)cc5)C(C)(C)C)CC4)cn3)nc2n(C2CCCC2)c1=O [YX044-22, (2S,4R)-1-((S)-2-(7-(4-(6-((6-acetyl-8-cyclopentyl-5-methyl-7-oxo-7,8-dihydropyrido[2,3-d]pyrimidin-2-yl)amino)pyridin-3-yl)piperazin-1-yl)-7-oxoheptanamido)-3,3-dimethylbutanoyl)-4-hydroxy-N-((S)-1-(4-(4-methylthiazol-5-yl)phenyl)ethyl)pyrrolidine-2-carboxamide] |  |  |  |  | efficacy of CDK4/6 degraders, particularly XY028-140 and YX044-22 and YX044-19 |  |  |
